Columns and labels:
[1] = system: A549; test: Concentration required for growth inhibition of human lung cancer cells (A549); type: functional
[2] = system: NIH 3T3 (Mus musculus); test: Ratio of the peak heights normalized to the peak of clotrimazole as a reference was a measure of intracellular [Ca2+] stores depletion in NIH 3T3 cell
[3] = system: DU-145; test: Concentration required for growth inhibition of human prostate cancer cells (DU145) was determined; type: functional, cell-based

| Structure (SMILES) | GI50 [1] | Ratio [2] | IC50 [3] |
| --- | --- | --- | --- |
| Cc1ccc(NS(=O)(=O)c2ccc(C(C)(C)C)cc2)cc1 | 11 µM | 1.11 |  |
| CC(=O)Nc1ccc(S(=O)(=O)Nc2ccc(C)c(O)c2)cc1 | 48 µM | 0.19 |  |
| Cc1ccc(NS(=O)(=O)c2ccc([N+](=O)[O-])cc2)cc1O | 29 µM | 0.14 |  |
| Cc1ccc(NS(=O)(=O)c2ccc(-c3ccccc3)cc2)cc1O | 9 µM | 0.72 |  |
| O=S(=O)(Nc1ccccc1)c1ccc(-c2ccccc2)cc1 | 17 µM | 1.37 |  |
| Cc1ccccc1NS(=O)(=O)c1ccc(C(C)(C)C)cc1 | > 80 µM | 0.49 |  |
| CC(C)(C)c1ccc(O)c(C2(c3ccccc3)C(=O)Nc3ccccc32)c1 (stereo unspecified) | 3 µM | 1.1 | 2.49 µM |
| Cc1ccc(NS(=O)(=O)c2ccc(C(C)(C)C)cc2)cc1O | 6 µM | 1.12 |  |
| COc1ccc(S(=O)(=O)Nc2ccc(C)c(O)c2)cc1 | 51 µM | 0.12 |  |
| CC(C)(C)c1ccc(S(=O)(=O)Nc2ccccc2)cc1 | 16 µM | 1.44 |  |
| Cc1ccc(NS(=O)(=O)c2ccc(Br)cc2)cc1O | 20 µM | 0.27 |  |
| CC(C)(C)c1ccc(S(=O)(=O)Nc2cccc(O)c2)cc1 | 12 µM | 0.55 |  |
| CC(C)(C)c1ccc(S(=O)(=O)Nc2ccc(O)cc2)cc1 | 14 µM | 0.33 |  |
| Cc1cc(C2(c3ccccc3)C(=O)Nc3ccccc32)c(NS(=O)(=O)c2ccc(-c3ccccc3)cc2)cc1O (stereo unspecified) | 4 µM | 0 |  |
| Cc1cc(C2(c3ccccc3)C(=O)Nc3ccccc32)c(NS(=O)(=O)c2ccc(Oc3ccccc3)cc2)cc1O (stereo unspecified) | 5 µM | 0 |  |
| O=C1Nc2ccccc2C1(c1ccccc1)c1ccccc1 | 13 µM | 0.87 | 12.5 µM |
| Cc1cccc(NS(=O)(=O)c2ccc(C(C)(C)C)cc2)c1 | 80 µM | 0.95 |  |
| O=S(=O)(Nc1ccccc1)c1ccccc1 [PHENYL(PHENYLSULFONYL)AMINE] | > 80 µM | 0 |  |
| Cc1ccc(NS(=O)(=O)c2ccc(I)cc2)cc1O | 15 µM | 0.45 |  |
| O=S(=O)(Nc1ccccc1)c1ccc(Br)cc1 | 30 µM | 0.38 |  |
| O=[N+]([O-])c1ccc(S(=O)(=O)Nc2ccccc2)cc1 | 52 µM | 0.13 |  |
| Cc1cc(O)c(NS(=O)(=O)c2ccc(C(C)(C)C)cc2)cc1C1(c2ccccc2)C(=O)Nc2ccccc21 (stereo unspecified) | > 20 µM | 0.44 |  |
| Cc1ccc(NS(=O)(=O)c2ccc(Oc3ccccc3)cc2)cc1O | 7 µM | 1.1 |  |
| O=S(=O)(Nc1ccccc1)c1ccc(I)cc1 | 23 µM | 0.87 |  |
| Cc1cc(C2(c3ccccc3)C(=O)Nc3ccccc32)c(NS(=O)(=O)c2ccc(C(C)(C)C)cc2)cc1O (stereo unspecified) | 0.8 µM | 1.06 | 1.08 µM |
| COc1ccc(S(=O)(=O)Nc2ccccc2)cc1 | 16 µM | 0.63 |  |
| CN(c1ccccc1)S(=O)(=O)c1ccc(C(C)(C)C)cc1 | 30 µM | 0.14 |  |
| CC(C)(C)c1ccc(S(=O)(=O)Nc2ccccc2O)cc1 | 13 µM | 1.17 |  |
| Cc1ccc(NS(=O)(=O)c2ccc(C(C)(C)C)cc2)c(O)c1 | 8 µM | 1.44 |  |
